Numbers after ± are expanded uncertainties.
Assay: molar heat capacity at constant pressure
Conditions: 101.33 kPa, Crystal

COC(=O)[C@H](Cc1ccccc1)NC(=O)[C@H](CC(C)C)NC(=O)[C@H](CCSC)NC=O [methyl formyl-L-methionyl-L-leucyl-L-phenylalaninate]
Conditions | molar heat capacity at constant pressure [J/K/mol]
5 K | 1.99 ± 0.12
6.02 K | 2.6 ± 0.14
6.13 K | 2.71 ± 0.15
6.28 K | 2.91 ± 0.16
6.43 K | 3.21 ± 0.17
6.59 K | 3.52 ± 0.19
6.73 K | 3.88 ± 0.2
6.88 K | 4.29 ± 0.22
7.04 K | 4.56 ± 0.23
7.19 K | 4.97 ± 0.25
7.35 K | 5.42 ± 0.27
7.52 K | 5.83 ± 0.29
7.66 K | 6.28 ± 0.31
7.84 K | 6.73 ± 0.33
7.98 K | 7.23 ± 0.36
8.17 K | 7.72 ± 0.38
8.33 K | 8.13 ± 0.4
8.5 K | 8.58 ± 0.42
8.7 K | 9.08 ± 0.44
8.84 K | 9.48 ± 0.46
8.98 K | 9.89 ± 0.48
9.13 K | 10.3 ± 0.5
9.3 K | 10.7 ± 0.5
9.45 K | 11 ± 0.5
9.62 K | 11.5 ± 0.5
9.78 K | 11.8 ± 0.6
9.95 K | 12.3 ± 0.6
10 K | 12.5 ± 0.6
10.27 K | 13.2 ± 0.6
10.63 K | 14.1 ± 0.7
11.04 K | 15 ± 0.7
11.45 K | 16 ± 0.7
11.88 K | 17.1 ± 0.8
12.29 K | 18 ± 0.8
12.79 K | 19.2 ± 0.9
13.24 K | 20.4 ± 0.9
13.71 K | 21.7 ± 1
14.18 K | 22.7 ± 1
14.65 K | 24.1 ± 1.1
15 K | 25.1 ± 1.1
15.12 K | 25.3 ± 0.6
15.6 K | 26.78 ± 0.61
15.99 K | 28 ± 0.64
16.64 K | 29.85 ± 0.67
17.1 K | 31.58 ± 0.7
17.62 K | 33.24 ± 0.72
18.1 K | 34.79 ± 0.75
18.78 K | 37.21 ± 0.78
19.22 K | 38.75 ± 0.81
19.72 K | 40.59 ± 0.83
20 K | 41.76 ± 0.85
21.41 K | 47.32 ± 0.93
23.4 K | 55.2 ± 1
25 K | 61.13 ± 1.1
25.67 K | 63.45 ± 1.1
27.96 K | 71.89 ± 1.2
30 K | 79.28 ± 1.1
30.29 K | 80.5 ± 1.1
32.65 K | 88.71 ± 1.2
35.04 K | 96.64 ± 1.3
37.44 K | 105 ± 1.4
39.87 K | 112.9 ± 1.5
40 K | 113.3 ± 1.5
42.32 K | 120.6 ± 1.1
44.78 K | 127.7 ± 1.2
47.26 K | 134.1 ± 1.2
49.75 K | 139.9 ± 1.3
50 K | 140.8 ± 1.3
52.01 K | 145.9 ± 1.3
54.78 K | 153.1 ± 1.4
57.3 K | 160.1 ± 1.4
59.87 K | 167.1 ± 1.5
60 K | 167.6 ± 1.5
62.41 K | 174.3 ± 1.5
64.96 K | 181.3 ± 1.6
66.9 K | 186.5 ± 1.6
70 K | 194.3 ± 1.7
70.06 K | 194.1 ± 1.7
72.6 K | 201 ± 1.8
75.15 K | 206 ± 1.8
77.73 K | 212.1 ± 1.8
80 K | 216.1 ± 1.9
80.1 K | 216.1 ± 1.9
82.93 K | 221.7 ± 1.9
85.5 K | 227 ± 2
88.2 K | 232.3 ± 2
90 K | 236.3 ± 1.9
90.6 K | 238.4 ± 1.9
90.85 K | 237.1 ± 1.9
93.51 K | 243.4 ± 1.9
96.19 K | 248.8 ± 2
98.88 K | 253.3 ± 2
100 K | 256.4 ± 2
101.58 K | 258.9 ± 2
104.28 K | 264 ± 2.1
106.98 K | 269.4 ± 2.1
109.69 K | 274.9 ± 2.1
110 K | 275.6 ± 2.1
112.38 K | 279.5 ± 2.2
115.08 K | 284.3 ± 2.2
117.78 K | 289.3 ± 2.2
120 K | 292.9 ± 2.3
120.47 K | 293.3 ± 2.3
123.16 K | 297.5 ± 2.3
125.85 K | 302.5 ± 2.3
128.53 K | 306.7 ± 2.4
130 K | 309.1 ± 2.4
131.22 K | 310.6 ± 2.4
133.99 K | 316.2 ± 2.4
136.67 K | 319.1 ± 2.4
139.35 K | 323.5 ± 2.5
140 K | 324.7 ± 2.5
142.02 K | 328.1 ± 2.5
144.68 K | 332.5 ± 2.5
147.35 K | 336.5 ± 2.6
150 K | 340.1 ± 2.6
150.01 K | 340.6 ± 2.6
152.68 K | 344.7 ± 2.6
155.33 K | 348.5 ± 2.7
157.99 K | 352.9 ± 2.7
160 K | 355.6 ± 2.7
160.64 K | 357.2 ± 2.7
163.28 K | 361.6 ± 2.7
165.92 K | 365.7 ± 2.8
168.56 K | 368.7 ± 2.8
170 K | 371.3 ± 2.8
171.19 K | 373.7 ± 2.8
174.6 K | 377.8 ± 2.9
176.09 K | 381.5 ± 2.9
179.5 K | 385.9 ± 2.9
180 K | 387.3 ± 2.9
182.11 K | 390.6 ± 2.9
184.71 K | 394.8 ± 3
187.31 K | 398.3 ± 3
189.9 K | 402.2 ± 3
190 K | 403.7 ± 3
192.49 K | 407.4 ± 3.1
195.07 K | 411.8 ± 3.1
197.64 K | 416.1 ± 3.1
200 K | 420.3 ± 3.1
200.2 K | 420 ± 3.1
202.74 K | 423.8 ± 3.2
205.27 K | 428.2 ± 3.2
207.77 K | 433.6 ± 3.2
210 K | 437.2 ± 3.3
210.28 K | 436.5 ± 3.3
212.77 K | 442.5 ± 3.3
215.23 K | 446.4 ± 3.3
217.6 K | 450.8 ± 3.4
220 K | 454.3 ± 3.4
220.02 K | 455.6 ± 3.4
222.4 K | 459.1 ± 3.4
224.71 K | 463.1 ± 3.4
227.02 K | 467.1 ± 3.5
229.33 K | 471.1 ± 3.5
230 K | 471.6 ± 3.5
231.66 K | 475.2 ± 3.5
234 K | 478.4 ± 3.5
236.36 K | 484.2 ± 3.6
238.72 K | 488 ± 3.6
240 K | 489 ± 3.6
241.09 K | 490.9 ± 3.6
243.46 K | 493.2 ± 3.7
245.83 K | 498.9 ± 3.7
248.18 K | 503 ± 3.7
250 K | 506.5 ± 3.7
250.5 K | 507.1 ± 3.7
252.78 K | 509.6 ± 3.8
254.83 K | 514.5 ± 3.8
257.07 K | 518.7 ± 3.8
259.3 K | 523.3 ± 3.9
260 K | 524.3 ± 3.9
261.5 K | 528 ± 3.9
263.68 K | 532.6 ± 3.9
265.84 K | 535.2 ± 3.9
267.99 K | 539.2 ± 4
270 K | 542.4 ± 4
270.16 K | 543.2 ± 4
272.34 K | 547.3 ± 4
274.5 K | 552.1 ± 4.1
276.67 K | 554.9 ± 4.1
277.1 K | 557.8 ± 4.1
279.97 K | 561.2 ± 4.1
280 K | 561.1 ± 4.1
282.11 K | 564.9 ± 4.1
284.23 K | 568.8 ± 4.2
286.34 K | 571.5 ± 4.2
288.8 K | 578 ± 4.2
290 K | 580.7 ± 4.3
290.49 K | 581 ± 4.3
292.53 K | 584.6 ± 4.3
294.54 K | 587.8 ± 4.3
296.39 K | 591.6 ± 4.3
298.15 K | 597.6 ± 4.4
298.4 K | 596.2 ± 4.4
300 K | 601.6 ± 4.4
300.24 K | 601.4 ± 4.4
302.09 K | 606.6 ± 4.4
304.77 K | 614.7 ± 4.5
307.42 K | 619.1 ± 4.5
309.83 K | 624.8 ± 4.6
310 K | 624.4 ± 4.6
312.19 K | 631 ± 4.6
314.41 K | 635 ± 4.6
316.68 K | 638.7 ± 4.7
318.91 K | 645.4 ± 4.7
320 K | 649.7 ± 4.7
321.09 K | 652.2 ± 4.8
323.22 K | 661.1 ± 4.8
325.19 K | 665.5 ± 4.8
327.12 K | 669.6 ± 4.9
329.13 K | 677.2 ± 4.9
330 K | 678.4 ± 4.9
330.96 K | 681.9 ± 5
332.75 K | 688.8 ± 5
334.5 K | 691.9 ± 5
335.18 K | 695 ± 5
336.88 K | 700.5 ± 5.1
338.54 K | 704.4 ± 5.1
340 K | 711.3 ± 5.2
340.17 K | 710.6 ± 5.2
341.74 K | 717 ± 5.2
343.27 K | 723.9 ± 5.2
344 K | 726 ± 5.3

Source: the NIST ThermoML archive (doi:10.1021/je400879v)
